This passage reports GI50 and IC50 results from US11319322B2, “Substituted aryl ether compound, preparation method thereof, pharmaceutical composition and use thereof” (Xiamen University, priority 2017, dated 2022).

A value given as a limit tells only on which side of the number the result lay.

Common to all, as to assay type: cell-based
The target of one assay is T1, KIF5B-RET-BaF3 (Homo sapiens, UniProt P07949).
T1 construct: fused on or other part: P33176 (Kinesin-1 heavy chain)
Nature of the assay: Growth inhibition of KIF5B-RET-BaF3 cells stably transfected with kinase (MTS). Conditions: 48 h, read-out: KIF5B-RET (IC50/nM). In short, it runs like this:
(§1)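 IC50 derived from growth inhibition by MTS absorbance at 490 nm after 48 h compound exposure (top 10 μM, 1:3 steps, 8 points, 0.1% DMSO) of 2×10^4 RET-fusion (CCDC6-RET, KIF5B-RET) or wild-type BaF3 cells per well, in triplicate.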

In the next assay the target is T2, CCDC6-RET-BaF3 (Homo sapiens, UniProt P07949).
T2 construct: fused on or other part: Q16204 (Coiled-coil domain-containing protein 6)
Nature of the assay: Growth inhibition of CCDC6-RET-BaF3 cells stably transfected with kinase (MTS). Conditions: 48 h, read-out: CCDC6-RET (IC50/nM). The essentials:
as §1

The next assay has as its system wild-type BaF3. Briefly: Growth inhibition of wild-type BaF3 cells, broad-spectrum toxicity (MTS). Conditions: Mus musculus, 48 h, read-out: WT Ba/F3 (IC50/nM). On the procedure: Growth inhibitory activity of compounds on cell lines stably transfected with kinase
The activity of compounds against kinase RET is evaluated by their effect of inhibiting growth of cell lines stably transfected with kinase CCDC6-RET-BaF3, KIF5B-RET-BaF3, and wild-type BaF3 (Proc. Natl. Acad. Sci. USA., 2006, 103, 3153-8.). The growth of the cell lines stably transfected with kinase CCDC6-RET-BaF3, KIF5B-RET-BaF3 depends on their kinase activity. If a compound can inhibit the activity of the kinase RET per se or the activity of the RET signaling pathway, the compound can inhibit the growth of BaF3 cells stably transfected with kinase. […] Therefore, a larger ratio between IC50 of a compound to wild-type BaF3 and IC50 of the compound to the cell lines stably transfected with kinase CCDC6-RET-BaF3, KIF5B-RET-BaF3 indicates better targeting.
The specific test method is given as follows:
1) Medium: DMEM (Dulbecco's modified eagle medium) or RPMI 1640 (containing 10% fetal bovine serum, 100 μg/mL ampicillin, 100 μg/mL streptomycin).
2) Reagents: MTS reaction solution (containing 2 mg/mL of MTS [3-(4,5-dimethylthiazol-2-yl)-5-(3-carboxymethoxyphenyl)-2-(4-sulfophenyl)-2H-tetrazolium, inner Salt]; 100 μg/mL PES (phenazine […])).
3) Compound test: cells stably transfected with kinase (CCDC6-RET-BaF3, KIF5B-RET-BaF3) or wild-type BaF3 cells (2×10^4 cells/well) were incubated into a 96-well culture plate, the volume of cell culture fluid was 90 μL, and then 10 μL of the compound at each gradient concentration was added (the highest concentration was 10 μM, which was diluted stepwise by ⅓, and 8 concentration points were set in total; the system contained 0.1% DMSO (dimethyl sulfoxide)). The cell plate with uniformly mixed compound was cultured in a cell culture incubator (37° C.; 5% CO2) for 48 h, then 20 μL of MTS reaction solution was added, uniformly mixed and incubated in the cell culture incubator (37° C.; 5% CO2) for 1-4 hr, OD values at 490 nm were measured by a microplate reader (VARIOSKAN FLASH, Thermo). Three parallels were set in each group of experiments, with 0.1% (a final concentration) DMSO as a negative control, and a medium without cells or compounds as a blank control. The cell growth inhibition rate was calculated by the following formula: Cell growth inhibition rate %=1−(ODexperimental group−ODblank group)/(ODnegative group−ODblank group)×100%
4) IC50 calculation: The semi-inhibitory concentration of the compound acting on cell growth was calculated using GradPad Prism 5 software according to the measured cell growth inhibition rate.

T1 sequence (P07949 whole entry, change not shown, the tested form may be a part): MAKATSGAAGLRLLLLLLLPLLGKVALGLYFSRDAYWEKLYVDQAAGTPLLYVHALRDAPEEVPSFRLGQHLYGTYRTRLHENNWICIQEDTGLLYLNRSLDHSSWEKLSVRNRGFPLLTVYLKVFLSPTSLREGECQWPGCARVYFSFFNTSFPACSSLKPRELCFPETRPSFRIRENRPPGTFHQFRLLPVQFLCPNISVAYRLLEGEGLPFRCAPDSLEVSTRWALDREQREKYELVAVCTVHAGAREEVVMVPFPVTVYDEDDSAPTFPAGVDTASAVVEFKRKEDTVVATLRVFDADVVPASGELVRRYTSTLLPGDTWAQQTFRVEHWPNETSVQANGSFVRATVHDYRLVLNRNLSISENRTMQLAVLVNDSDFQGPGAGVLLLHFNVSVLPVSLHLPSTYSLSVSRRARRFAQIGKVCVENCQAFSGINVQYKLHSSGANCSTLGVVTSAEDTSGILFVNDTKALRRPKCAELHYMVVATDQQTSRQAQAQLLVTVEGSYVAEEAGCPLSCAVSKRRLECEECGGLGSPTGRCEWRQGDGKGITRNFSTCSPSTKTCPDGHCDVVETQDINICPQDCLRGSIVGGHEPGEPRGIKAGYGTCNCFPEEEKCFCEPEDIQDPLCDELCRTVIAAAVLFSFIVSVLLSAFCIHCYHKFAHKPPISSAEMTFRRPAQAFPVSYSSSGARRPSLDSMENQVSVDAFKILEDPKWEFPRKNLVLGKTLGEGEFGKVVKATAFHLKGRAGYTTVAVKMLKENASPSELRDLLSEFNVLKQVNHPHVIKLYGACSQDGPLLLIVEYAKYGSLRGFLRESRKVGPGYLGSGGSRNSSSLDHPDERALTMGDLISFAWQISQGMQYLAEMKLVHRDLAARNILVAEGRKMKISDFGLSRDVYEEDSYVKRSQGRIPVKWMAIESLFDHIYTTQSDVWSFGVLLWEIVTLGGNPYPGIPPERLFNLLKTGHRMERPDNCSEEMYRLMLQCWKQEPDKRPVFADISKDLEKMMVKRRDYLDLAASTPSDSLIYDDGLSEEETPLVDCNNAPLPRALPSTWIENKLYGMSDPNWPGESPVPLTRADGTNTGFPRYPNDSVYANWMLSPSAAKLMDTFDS
T2 sequence (P07949 whole entry, change not shown, the tested form may be a part): as above

Take `CN1CCN(Cc2ccc(C(=O)Nc3cc(Oc4nc(-c5cccnc5)nc5cc[nH]c45)ccc3Cl)cc2C(F)(F)F)CC1` [III-k-1]: the values for the GI50 at KIF5B-RET-BaF3 and at CCDC6-RET-BaF3 were 1320 nM and 1860 nM, respectively. Also, in the assay with wild-type BaF3, the IC50 worked out at 4160 nM.
Turning to `CN1CCN(Cc2ccc(C(=O)Nc3cc(Oc4nc(-c5ccc(O)cc5)nc5ccn(C)c45)ccc3Cl)cc2C(F)(F)F)CC1` [III-k-10], the GI50 on KIF5B-RET-BaF3 is 2440 nM; at CCDC6-RET-BaF3, 2300 nM. For the same compound, the IC50 in the assay with wild-type BaF3 amounted to 1440 nM.
Turning to `Cc1ccc(C(=O)Nc2ccc(CN3CCN(C)CC3)c(C(F)(F)F)c2)cc1Oc1nc(-c2ccc(O)cc2)nc2cc[nH]c12` [III-m-26], the GI50 at KIF5B-RET-BaF3 stood at 2900 nM; at CCDC6-RET-BaF3 it was 1320 nM. Moreover, the IC50 in the assay on wild-type BaF3 worked out at 4100 nM.
Take `CN1CCN(Cc2cc(NC(=O)c3cccc(Oc4nc(-c5ccncc5)nc5cc[nH]c45)c3)cc(C(F)(F)F)c2)CC1` [III-p-2]: the GI50 on KIF5B-RET-BaF3 stood at 672 nM; at CCDC6-RET-BaF3, 449 nM. The IC50 in the assay on wild-type BaF3 is greater than 10000 nM.
For `CN1CCN(Cc2ccc(C(=O)Nc3cc(Oc4nc(-c5ccsc5)nc5cc[nH]c45)ccc3Cl)cc2C(F)(F)F)CC1` [III-k-7] the same measures were 1900 nM, 2960 nM and 3720 nM.
For `CN1CCN(Cc2ccc(C(=O)Nc3cc(Oc4nc(-c5ccsc5)nc5ccn(C)c45)ccc3Cl)cc2C(F)(F)F)CC1` [III-k-8], the GI50 came to 3580 nM on KIF5B-RET-BaF3 and 3460 nM on CCDC6-RET-BaF3. Moreover, the IC50 in the assay with wild-type BaF3 is 3990 nM.
As for `CN1CCN(Cc2ccc(NC(=O)c3cc(Oc4nc(-c5cccnc5)nc5ccsc45)ccc3Cl)cc2C(F)(F)F)CC1` [VI-o-1], the GI50 came out at 2870 nM at KIF5B-RET-BaF3 and 2170 nM on CCDC6-RET-BaF3. The IC50 with wild-type BaF3 turned out to be 3990 nM.
Regarding `Cc1ccc(Oc2nc(-c3ccncc3)nc3[nH]cnc23)cc1C(=O)Nc1ccc(CN2CCN(C)CC2)c(C(F)(F)F)c1` [I-n-1], the values for the GI50 on KIF5B-RET-BaF3 and on CCDC6-RET-BaF3 were 900 nM and 298 nM, respectively. In the assay with wild-type BaF3, the IC50 is greater than 10000 nM.
Consider `Cc1ccc(C(=O)Nc2ccc(CN3CCN(C)CC3)c(C(F)(F)F)c2)cc1Oc1cc(-c2cccnc2)nc2[nH]ccc12` [V-m-1], for which the GI50 on KIF5B-RET-BaF3 is 473 nM; at CCDC6-RET-BaF3, 1020 nM. Besides, the IC50 in the assay with wild-type BaF3 was 1380 nM.
On to `Cc1ccc(C(=O)Nc2cc(CN3CCN(C)CC3)cc(C(F)(F)F)c2)cc1Oc1nc(-c2ccncc2)nc2cc[nH]c12` [III-q-2], for which the GI50 was found to be 594 nM on KIF5B-RET-BaF3 and 351 nM on CCDC6-RET-BaF3. Also, the IC50 with wild-type BaF3 is 843 nM.
Consider `CN1CCN(Cc2ccc(NC(=O)c3cccc(Oc4cc(-c5ccncc5)nc5c4ccn5C)c3)cc2C(F)(F)F)CC1` [V-I-4], for which the results for the GI50 on KIF5B-RET-BaF3 and on CCDC6-RET-BaF3 were 143 nM and 337 nM, respectively. Also, the IC50 with wild-type BaF3 was determined as 1420 nM.
For `CN1CCN(Cc2ccc(C(=O)Nc3cccc(Oc4nc(-c5ccncc5)nc5ccsc45)c3)cc2C(F)(F)F)CC1` [VI-h-2] the same measures were 493 nM, 561 nM and 3900 nM.
`CN1CCN(Cc2ccc(C(=O)Nc3cc(Oc4nc(-c5ccoc5)nc5ccn(C)c45)ccc3Cl)cc2C(F)(F)F)CC1` [III-k-6]: the GI50 on KIF5B-RET-BaF3 came to 1010 nM; at CCDC6-RET-BaF3, 990 nM. Further, the IC50 with wild-type BaF3 is 2470 nM.
For `Cc1ccc(C(=O)Nc2ccc(CN3CCN(C)CC3)c(C(F)(F)F)c2)cc1Oc1cc(-c2ccncc2)nc2c1ccn2C` [V-m-4] the same measures were 811 nM, 1240 nM and 1420 nM.
For the compound `Cc1ccc(Oc2nc(-c3ccc(O)cc3)nc3c2ncn3C)cc1NC(=O)c1ccc(CN2CCN(C)CC2)c(C(F)(F)F)c1` [I-j-4], the GI50 at KIF5B-RET-BaF3 came out at 1610 nM; on CCDC6-RET-BaF3, 1010 nM. In addition, the IC50 in the assay with wild-type BaF3 was found to be 1790 nM.
For `CN1CCN(Cc2ccc(NC(=O)c3cc(Oc4nc(-c5ccncc5)nc5ccn(C)c45)ccc3-c3ccncc3)cc2C(F)(F)F)CC1` [III-v-1] the same measures were 835 nM, 431 nM and greater than 10000 nM.
For the compound `Cc1ccc(Oc2nc(-c3ccc(Cl)cc3)nc3ccn(C)c23)cc1NC(=O)c1ccc(CN2CCN(C)CC2)c(C(F)(F)F)c1` [III-j-12], the GI50 on KIF5B-RET-BaF3 was determined as 2970 nM; at CCDC6-RET-BaF3 it was 2660 nM. Moreover, the IC50 with wild-type BaF3 was 2150 nM.
Turning to `Cn1cnc2c(Oc3cccc(C(=O)Nc4cccc(C(F)(F)F)c4)c3)nc(-c3ccncc3)nc21` [I-d-2], the GI50 on KIF5B-RET-BaF3 turned out to be 5710 nM; at CCDC6-RET-BaF3 it was 1540 nM. For the same compound, the IC50 with wild-type BaF3 was greater than 10000 nM.
For `Cc1ccc(C(=O)Nc2ccc(CN3CCN(C)CC3)c(C(F)(F)F)c2)cc1Oc1cc(-c2ccncc2)nc2[nH]ccc12` [V-m-2] the same measures were 978 nM, 1350 nM and 905 nM.
The like results for `Cc1ccc(C(=O)Nc2ccc(CN3CCN(C)CC3)c(C(F)(F)F)c2)cc1Oc1nc(N2CCN(C)CC2)nc2ccn(C)c12` [III-m-23] were, in that order, 477 nM, 515 nM and 464 nM.
For `Cc1ccc(Oc2nc(-c3ccoc3)nc3cc[nH]c23)cc1NC(=O)c1ccc(CN2CCN(C)CC2)c(C(F)(F)F)c1` [III-j-9] the same measures were 464 nM, 97.6 nM and 4260 nM.
As to `Cc1ccc(C(=O)Nc2ccc(CN3CCN(C)CC3)c(C(F)(F)F)c2)cc1Oc1nc(-c2cccc(Cl)c2)nc2ccn(C)c12` [III-m-13], the values for the GI50 at KIF5B-RET-BaF3 and on CCDC6-RET-BaF3 were 3000 nM and 3510 nM, respectively. The IC50 in the assay with wild-type BaF3 stood at 3390 nM.
`CN1CCN(Cc2ccc(NC(=O)c3cc(Oc4nc(-c5ccncc5)nc5cc[nH]c45)ccc3Cl)cc2C(F)(F)F)CC1` [III-o-2]: the GI50 on KIF5B-RET-BaF3 was determined as 13.4 nM; on CCDC6-RET-BaF3 it was 17.4 nM. Besides, the IC50 with wild-type BaF3 was 1290 nM.
Consider `Cc1ccc(C(=O)Nc2ccc(CN3CCN(C)CC3)c(C(F)(F)F)c2)cc1Oc1nc(N2CC(C)OC(C)C2)nc2ccn(C)c12` (stereo not drawn) [III-m-21], for which the results for the GI50 on KIF5B-RET-BaF3 and at CCDC6-RET-BaF3 were 3750 nM and 3490 nM, respectively. Further, in the assay with wild-type BaF3, the IC50 is 2920 nM.
For `Cc1ccc(Oc2nc(-c3ccc(N)cc3)nc3ccn(C)c23)cc1NC(=O)c1ccc(CN2CCN(C)CC2)c(C(F)(F)F)c1` [III-j-16], the values for the GI50 at KIF5B-RET-BaF3 and at CCDC6-RET-BaF3 were 1470 nM and 2040 nM, respectively. The IC50 with wild-type BaF3 came to 2280 nM.
As for `Cc1ccc(Oc2nc(-c3ccncc3)nc3ccsc23)cc1NC(=O)c1ccc(CN2CCN(C)CC2)c(C(F)(F)F)c1` [VI-j-2], the GI50 on KIF5B-RET-BaF3 stood at 17 nM; on CCDC6-RET-BaF3, 3.08 nM. Besides, the IC50 in the assay on wild-type BaF3 was found to be 3940 nM.
Regarding `Cc1ccc(Oc2ncnc3ccn(C)c23)cc1NC(=O)c1ccc(CN2CCN(C)CC2)c(C(F)(F)F)c1` [III-j-18], the GI50 on KIF5B-RET-BaF3 was 1350 nM; on CCDC6-RET-BaF3, 477 nM. Moreover, the IC50 in the assay with wild-type BaF3 was greater than 10000 nM.
As for `Cc1ccc(C(=O)Nc2cccc(C(F)(F)F)c2)cc1Oc1nc(-c2ccncc2)nc2c1cnn2C` [II-e-2], the GI50 was 1770 nM at KIF5B-RET-BaF3 and 1430 nM at CCDC6-RET-BaF3. The IC50 in the assay on wild-type BaF3 is greater than 10000 nM.
As for `Cc1ccc(C(=O)Nc2ccc(CN3CCN(C)CC3)c(C(F)(F)F)c2)cc1Oc1nc(-c2ccc(O)cc2)nc2ccn(C)c12` [III-m-16], the values for the GI50 on KIF5B-RET-BaF3 and at CCDC6-RET-BaF3 were 4420 nM and 3670 nM, respectively. In the assay on wild-type BaF3, the IC50 is 4360 nM.
Take `CN1CCN(Cc2ccc(NC(=O)c3cccc(Oc4nc(-c5ccncc5)nc5[nH]cnc45)c3)cc2C(F)(F)F)CC1` [I-l-1]: the GI50 turned out to be 1950 nM on KIF5B-RET-BaF3 and 476 nM on CCDC6-RET-BaF3. The IC50 in the assay on wild-type BaF3 is greater than 10000 nM.
